Assay [1] concerns Toledo cells. Put plainly: Cell proliferation assay, Toledo cells (MTS, 72 h). The class given is cell-based. The note with it: Homo sapiens, Toledo cells, MTS, read-out: Toledo IC50. In a few lines: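 Toledo cells (30000/well, RPMI-1640 with 10% FBS) were preincubated for 4 h. They were then exposed to nine compound concentrations from 10000 to 1.5 nM for 72 h at 37 °C, 5% CO2. MTS was added for 2 h and absorbance read at 490 nm to give IC50.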

Assay [2] relates to RS4;11-BCL-2 F104L cells. Put plainly: Cell proliferation assay, engineered RS4;11 cells stably overexpressing BCL-2 F104L (MTS, 168 h). The assay is classed as cell-based. The note with it: Homo sapiens, read-out: RS4, 11 BCL2-F104L. As for the experimental part:
MTS testing kit was purchased from Promega (Madison, Wis., USA). The RPMI-1640, Fetal bovine serum and Penicillin-Streptomycin were purchased from BI (Biological Industries, Beit Haemek, Israel). Puromycin was purchased from Beyotime (shanghai, China). Dimethyl sulfoxide (DMSO) was purchased from Sigma (St. Louis, Mo., USA). RS4;1l-BCL-2 G101V and RS4;11-BCL-2 F104L cells were cultured in RPM11640 supplemented with 1 ug/mL puromycin, 100 U/mL Penicillin-Streptomycin and 10% FBS.
To investigate whether a compound is able to inhibit the activity of BCL-2 mutation in cells, a mechanism-based assay using engineered cell lines stably overexpressing BCL-2 mutation ([…] and […]) was developed. In this assay, the inhibition of BCL-2 mutation was reflected by the inhibition of cell proliferation of RS4;11-BCL-2 G101V and RS4;11-BCL-2 F104L cells. Cells were plated into 96-well plates at optimized cell density (RS4;11-BCL-2 G101V: 5000 cells/well; RS4;11-BCL-2 F104L: 5000 cells/well). Plates were incubated at 37° C., with 5% CO2 for 4 h. Compounds were serially diluted to the final-concentrations of 10000, 3333.3, 1111.1, 370.4, 123.5, 41.2, 13.7, 4.6 and 1.4 nM and added to the plates. Plates were incubated at 37° C., with 5% CO2 for 168 h. 20 μl MTS was added into each well and the plates were incubated at 37° C., with 5% CO2 exactly for 2 h. The absorbance was measured by a microplate reader at 490 nm. IC50 values were calculated using GraphPad Prism 5.0 software.

As to `COc1nc2[nH]cc(F)c2cc1Oc1cc(N2CCC3(CC2)CN([C@H]2CCC[C@H]2c2ccccc2C(C)C)C3)ccc1C(=O)NS(=O)(=O)c1ccc(NC[C@H]2CC[C@](C)(O)CC2)c([N+](=O)[O-])c1` (single isomer, unassigned) [Example D-109, 2-((3-fluoro-6-methoxy-1H-pyrrolo [2,3-b]pyridin-5-yl)oxy)-N-((4-((((1r,4r)-4-hydroxy-4-methylcyclohexyl)methyl)amino)-3-nitrophenyl)sulfonyl)-4-(2-((1S,2S or 1R,2R)-2-(2-isopropylphenyl)cyclopentyl)-2,7-diazaspiro[3.5]nonan-7-yl)benzamide], the IC50 turned out to be 1 nM in assay [1] and 8 nM in assay [2].

Turning to `Cc1nc2[nH]cc(F)c2cc1Oc1cc(N2CCC3(CC2)CN([C@H]2CCC[C@H]2c2ccccc2C(C)C)C3)ccc1C(=O)NS(=O)(=O)c1cc2c(c([N+](=O)[O-])c1)N[C@@H]([C@H]1CC[C@](C)(O)CC1)CO2` (single isomer, unassigned) [Example D-240, 2-((3-fluoro-6-methyl-1H-pyrrolo [2,3-b]pyridin-5-yl)oxy)-N-(((S)-3-((1r,4S)-4-hydroxy-4-methylcyclohexyl)-5-nitro-3,4-dihydro-2H-benzo[b][1,4]oxazin-7-yl)sulfonyl)-4-(2-((1S,2S or 1R,2R)-2-(2-isopropylphenyl)cyclopentyl)-2,7-diazaspiro[3.5]nonan-7-yl)benzamide], the results for the IC50 in assay [1] and in assay [2] were 1 nM and 10 nM, respectively.

As to `Cc1nc2[nH]cc(F)c2cc1Oc1cc(N2CCC3(CC2)CC(N2CCC[C@H]2c2ccccc2C(C)C)C3)ccc1C(=O)NS(=O)(=O)c1cc2c(c([N+](=O)[O-])c1)N[C@@H]([C@H]1CC[C@](C)(O)CC1)CO2` (single isomer, unassigned) [Example D-244, 2-((3-fluoro-6-methyl-1H-pyrrolo [2,3-b]pyridin-5-yl)oxy)-N-(((S)-3-((1r,4S)-4-hydroxy-4-methylcyclohexyl)-5-nitro-3,4-dihydro-2H-benzo[b][1,4]oxazin-7-yl)sulfonyl)-4-(2-((R or S)-2-(2-isopropylphenyl)pyrrolidin-1-yl)-7-azaspiro[3.5]nonan-7-yl)benzamide], the IC50 in assay [1] and in assay [2] was 1 nM in each case.

For `Cc1nc2[nH]cc(F)c2cc1Oc1cc(N2CCC3(CC2)CN([C@H]2CCC[C@H]2c2ccccc2C(C)C)C3)ccc1C(=O)NS(=O)(=O)c1ccc(NC[C@H]2CC[C@](C)(O)CC2)c([N+](=O)[O-])c1` (single isomer, unassigned) [Example D-234, 2-((3-fluoro-6-methyl-1H-pyrrolo [2,3-b]pyridin-5-yl)oxy)-N-((4-((((1r,4r)-4-hydroxy-4-methylcyclohexyl)methyl)amino)-3-nitrophenyl)sulfonyl)-4-(2-((1S,2S or 1R,2R)-2-(2-isopropylphenyl)cyclopentyl)-2,7-diazaspiro[3.5]nonan-7-yl)benzamide], the IC50 in assay [1] was 1 nM; in assay [2], 8 nM.

In the case of `COc1nc2[nH]ccc2cc1Oc1cc(N2CCC3(CC2)CC(N2CCC[C@H]2c2ccccc2C(C)C)C3)ccc1C(=O)NS(=O)(=O)c1cc2c(c([N+](=O)[O-])c1)N[C@@H]([C@H]1CC[C@](C)(O)CC1)CO2` (single isomer, unassigned) [Example D-10, N-(((S)-3-((1r,4S)-4-hydroxy-4-methylcyclohexyl)-5-nitro-3,4-dihydro-2H-benzo[b][1,4]oxazin-7-yl)sulfonyl)-4-(2-((R or S)-2-(2-isopropylphenyl)pyrrolidin-1-yl)-7-azaspiro[3.5]nonan-7-yl)-2-((6-methoxy-1H-pyrrolo [2,3-b]pyridin-5-yl)oxy)benzamide], the IC50 in assay [1] is 1 nM; in assay [2] it was 34 nM.

With `CC(C)c1ccccc1[C@@H]1CCCN1C1CC2(CCN(c3ccc(C(=O)NS(=O)(=O)c4cc5c(c([N+](=O)[O-])c4)N[C@@H]([C@H]4CC[C@](C)(O)CC4)CO5)c(Oc4cc5cc[nH]c5nc4OC[C@H]4COCCO4)c3)CC2)C1` (single isomer, unassigned) [Example D-252, 2-((6-(((R)-1,4-dioxan-2-yl)methoxy)-1H-pyrrolo[2,3-b]pyridin-5-yl)oxy)-N-(((S)-3-((1r,4S)-4-hydroxy-4-methylcyclohexyl)-5-nitro-3,4-dihydro-2H-benzo[b][1,4]oxazin-7-yl)sulfonyl)-4-(2-((R or S)-2-(2-isopropylphenyl)pyrrolidin-1-yl)-7-azaspiro[3.5]nonan-7-yl)benzamide], the IC50 in assay [1] and in assay [2] was 1 nM throughout.

Take `CC(C)c1ccccc1[C@@H]1CCC[C@@H]1N1CC2(CCN(c3ccc(C(=O)NS(=O)(=O)c4ccc(NC[C@H]5CC[C@](C)(O)CC5)c([N+](=O)[O-])c4)c(Oc4cc5cc[nH]c5nc4F)c3)CC2)C1` (single isomer, unassigned) [Example D-116, 2-((6-fluoro-1H-pyrrolo[2,3-b]pyridin-5-yl)oxy)-N-((4-((1r,4r)-4-hydroxy-4-methylcyclohexyl)methyl)amino)-3-nitrophenyl) sulfonyl)-4-(2-((1S,2S or 1R,2R)-2-(2-isopropylphenyl) cyclopentyl)-2,7-diazaspiro[3.5] nonan-7-yl)benzamide]: the IC50 in assay [1] and in assay [2] was 1 nM throughout.

`CC(C)c1ccccc1[C@@H]1CCC[C@@H]1N1CC2(CCN(c3ccc(C(=O)NS(=O)(=O)c4cnc(NC[C@H]5CC[C@](C)(O)CC5)c([N+](=O)[O-])c4)c(Oc4cc5cc[nH]c5nc4F)c3)CC2)C1` (single isomer, unassigned) [Example A-158, 2-((6-fluoro-1H-pyrrolo[2,3-b]pyridin-5-yl)oxy)-N-((6-((((1r,4r)-4-hydroxy-4-methylcyclohexyl)methyl)amino)-5-nitropyridin-3-yl)sulfonyl)-4-(2-((1S,2S or 1R,2R)-2-(2-isopropylphenyl)cyclo-pentyl)-2,7-diazaspiro[3.5]nonan-7-yl) benzamide]: the figures for the IC50 in assay [1] and in assay [2] were 1 nM and 8 nM, respectively.

Consider `CC(C)c1ccccc1[C@@H]1CCC[C@@H]1N1CC2(CCN(c3ccc(C(=O)NS(=O)(=O)c4cc5c(c([N+](=O)[O-])c4)N[C@@H]([C@H]4CC[C@](C)(O)CC4)CO5)c(Oc4cc5cc[nH]c5nc4F)c3)CC2)C1` (single isomer, unassigned) [Example D-117, 2-((6-fluoro-1H-pyrrolo[2,3-b]pyridin-5-yl)oxy)-N-(((S)-3-((1r,4S)-4-hydroxy-4-methylcyclohexyl)-5-nitro-3,4-dihydro-2H-benzo[b] [1,4]oxazin-7-yl)sulfonyl)-4-(2-((1S,2S or 1R,2R)-2-(2-isopropylphenyl)cyclopentyl)-2,7-diazaspiro[3.5]nonan-7-yl)benzamide], for which the IC50 in assay [1] and in assay [2] was 1 nM each time.

Regarding `Cc1nc2[nH]cc(F)c2cc1Oc1cc(N2CCC3(CC2)CN([C@H]2CCC[C@H]2c2ccccc2C(C)C)C3)ccc1C(=O)NS(=O)(=O)c1cnc(NC[C@H]2CC[C@](C)(O)CC2)c([N+](=O)[O-])c1` (single isomer, unassigned) [Example A-156, 2-((3-fluoro-6-methyl-1H-pyrrolo[2,3-b]pyridin-5-yl)oxy)-N-((6-((((1r,4r)-4-hydroxy-4-methylcyclohexyl)methyl)amino)-5-nitropyridin-3-yl)sulfonyl)-4-(2-((1S,2S or 1R,2R)-2-(2-isopropylphenyl)cyclo-pentyl)-2,7-diazaspiro[3.5]nonan-7-yl) benzamide], the IC50 in assay [1] stood at 1 nM; in assay [2], 16 nM.
